One test concerns Aureobasidium pullulans. Description: MIC against fungi, strain N. It is filed as cell-based. As to conditions: malt extract agar. Here is the method:
(§1) Determination of the minimum inhibitory concentration (MIC) against fungi
(§2) The investigation is carried out in malt extract agar (Merck) by the known agar incorporation test using the fungi
N Aureobasidium pullulans
(§3) For inhibition, the various compounds are in each case added in amounts such that concentrations of […] results in the agar. The concentrations (mg/liter) required for inhibition of the growth of the fungi (starting from traces of fungi dripped on) are illustrated in Table D.

For the next test, the system named is Candida albicans. Description: MIC against fungi, strain L. Type of test: cell-based. As to conditions: malt extract agar. Here is the method:
as §1, §2, §3

For another test, the system named is Pseudomonas aeruginosa. The test can be described thus: MIC against bacteria, strain B. It is filed as cell-based. The conditions noted are these: 24 h, 30° C., tested at 100 or 300 mg/liter. Here is the method: (§4) Determination of the minimum inhibitory concentration (MIC) against bacteria
(§5) ONCs (cultures incubated overnight) of the bacteria strains A-F grown in Caso-Peptone broth (Merck) are each diluted […] in saline. An amount of the suspension is introduced into Caso-Peptone broth such that the bacteria are again diluted 1:1,000. The cultures are treated with 100 or 300 mg/liter of the phosphonium stannates shown in Table B. After incubation at 30° C. in a shaking water bath for 24 hours, the cultures are evaluated on the basis of cloudiness. The MIC is the concentration at which the broth is not clouded by bacterial growth.

In the next test the test system is Chaetomium globosum. The test can be described thus: MIC against fungi, strain O. Type of test: cell-based. The conditions noted are these: malt extract agar. Here is the method:
as §1, §2, §3

The test system of another test is Aspergillus phoenicia. Description: MIC against fungi, strain H. It is filed as cell-based. As to conditions: malt extract agar. Here is the method:
as §1, §2, §3

The subject of a further test is Endomyces geotrichum. The test can be described thus: MIC against fungi, strain M. It is filed as cell-based. The conditions noted are these: malt extract agar. Here is the method: as §1, §2, §3
The next test deals with Alternaria alternata. Description: MIC against fungi, strain J. It is filed as cell-based. The conditions noted are these: malt extract agar. Here is the method:
as §1, §2, §3

The subject of another test is Enterobacter aerogenes. Description: MIC against bacteria, strain C. It is filed as cell-based. As to conditions: 24 h, 30° C., tested at 100 or 300 mg/liter. The protocol: as §4, §5
For a further test, the system named is Artemia salina. The test can be described thus: Action against Artemia salina. It is filed as in vivo. Further details: key: 0: nauplii not affected; 1: slight change; 1-2: nauplii affected; 2: nauplii severely affected; 2-3: almost all nauplii dead; 3: all nauplii dead. The source says: Determination of the action against Artemia salina
The commercially available eggs are caused to hatch under powerful aeration. […]

The test system of a further test is Serratia marcenscens. The test can be described thus: MIC against bacteria, strain D. Type of test: cell-based. As to conditions: 24 h, 30° C., tested at 100 or 300 mg/liter. The protocol:
as §4, §5

The test system of another test is Bacillus subtilis. Description: MIC against bacteria, strain F. Type of test: cell-based. As to conditions: 24 h, 30° C., tested at 100 or 300 mg/liter. The protocol:
as §4, §5

The next test deals with Penicillium funiculosum. Description: MIC against fungi, strain I. As to conditions: malt extract agar. It is filed as cell-based. Here is the method:
as §1, §2
I Penicillium funiculosum
as §3

The subject of test [1] is Cladosporium cladosporioides. The test can be described thus: MIC against fungi, strain K. It is filed as cell-based. The conditions noted are these: malt extract agar. The protocol: as §1, §2
K Cladosporium cladosporioides
as §3

For test [2], the system named is Alkaligenes denitrificans. Description: MIC against bacteria, strain E. Type of test: cell-based. As to conditions: 24 h, 30° C., tested at 100 or 300 mg/liter. Here is the method:
as §4, §5

The subject of the next test is Proteus vulgaris. The test can be described thus: MIC against bacteria, strain A. It is filed as cell-based. The conditions noted are these: 24 h, 30° C., tested at 100 or 300 mg/liter. Here is the method: as §4, §5
For another test, the system named is Aspergillus niger. Description: MIC against fungi, strain G. Type of test: cell-based. As to conditions: malt extract agar. Here is the method:
as §1, §2

The subject of the next test is Chlorella vulgaris. Description: Action against Chlorella vulgaris. It is filed as cell-based. As to conditions: 3 mg/liter; for Growth on the agar: 6 hours exposure (algae-destruction action); for Growth in the medium: 14 days (inhibition of growth). Also on record: key to Growth in the medium: 1: no growth in the medium, 3 ppm have a growthinhibiting action; key to Growth on the agar: 2: no growth on the agar, 3 ppm have destroyed the algae within 6 hours. The protocol:
Determination of the action against algae
A Chlorella vulgaris culture grown for 14 days in algae nutrient medium is diluted 1:200 in algae nutrient medium. Each of the compounds listed in Table E is then added such that a concentration of 3 mg/liter results. After incubation for 6 hours, 10 μl are in each case withdrawn and dripped onto algae agar in order to determine the destructive action.

As usually defined, the MIC is the smallest concentration in the dilution series that meets the test's criterion for growth inhibition. For the compound `CCCCCCCCCCCCCC[P+](CCCC)(CCCC)CCCC.CCCCCCCCCCCCCC[P+](CCCC)(CCCC)CCCC.[CH3][Sn-2]([CH3])([Cl])([Cl])([Cl])[Cl]` [Example 21], the MIC against fungi was determined as 10 µg/mL in the test on Aureobasidium pullulans; 10 µg/mL in the test on Candida albicans; 10 µg/mL against Chaetomium globosum; 50 µg/mL against Aspergillus phoenicia; 10 µg/mL against Endomyces geotrichum; 50 µg/mL against Alternaria alternata. The MIC against fungi against Penicillium funiculosum came to 10 µg/mL; in [1] it was 10 µg/mL; in the test on Aspergillus niger it was 50 µg/mL. Besides, the MIC (in the test with Pseudomonas aeruginosa; against Enterobacter aerogenes; against Serratia marcenscens; against Bacillus subtilis; in test [2]; against Proteus vulgaris) was 100 µg/mL in each case. In addition, the “Action against Artemia salina” value is 1-2 in the test on Artemia salina (0.25 mg/liter, 6 hours); 3 in the test on Artemia salina (0.25 mg/liter, 24 hours); 3 in the test on Artemia salina (0.25 mg/liter, 48 hours); 1-2 in the test on Artemia salina (0.5 mg/liter, 6 hours); 2 in the test on Artemia salina (0.5 mg/liter, 24 hours); 3 with Artemia salina (0.5 mg/liter, 48 hours). Besides, the “Action against Artemia salina” value is 1-2 in the test with Artemia salina (1 mg/liter, 6 hours); 3 with Artemia salina (1 mg/liter, 24 hours); 3 with Artemia salina (1 mg/liter, 48 hours); 1-2 in the test on Artemia salina (2.5 mg/liter, 6 hours); 3 in the test on Artemia salina (2.5 mg/liter, 24 hours); 3 with Artemia salina (2.5 mg/liter, 48 hours). Further, in the test on Chlorella vulgaris, the “Growth on the agar” value was 2. The “Growth in the medium” value with Chlorella vulgaris is listed as 1.
Regarding `CCCCCCCCCCCCCC[P+](CCCC)(CCCC)CCCC.[CH3][Sn-]([Cl])([Cl])([Cl])[Cl]` [Example 22], the MIC against fungi in the test on Aureobasidium pullulans was 10 µg/mL; with Candida albicans, 10 µg/mL; with Chaetomium globosum, 10 µg/mL; in the test on Aspergillus phoenicia, 50 µg/mL; in the test on Endomyces geotrichum it was 10 µg/mL; in the test on Alternaria alternata it was 50 µg/mL. Further, the MIC against fungi is 10 µg/mL in the test on Penicillium funiculosum, 10 µg/mL in test [1] and 50 µg/mL in the test with Aspergillus niger. For the same compound, the MIC (in the test on Pseudomonas aeruginosa; with Enterobacter aerogenes; in the test on Serratia marcenscens; with Bacillus subtilis; in test [2]; in the test with Proteus vulgaris) was 100 µg/mL in each case. In addition, the “Action against Artemia salina” value in the test on Artemia salina (0.25 mg/liter, 6 hours) is on record as 0; in the test on Artemia salina (0.25 mg/liter, 24 hours), 1-2; in the test with Artemia salina (0.25 mg/liter, 48 hours) it was 2-3; in the test on Artemia salina (0.5 mg/liter, 6 hours) it was 1-2; in the test with Artemia salina (0.5 mg/liter, 24 hours) it was 3; in the test on Artemia salina (0.5 mg/liter, 48 hours), 3. In addition, the “Action against Artemia salina” value is on record as 1-2 with Artemia salina (1 mg/liter, 6 hours); 3 in the test with Artemia salina (1 mg/liter, 24 hours); 3 in the test on Artemia salina (1 mg/liter, 48 hours); 1-2 with Artemia salina (2.5 mg/liter, 6 hours); 3 in the test with Artemia salina (2.5 mg/liter, 24 hours); 3 in the test with Artemia salina (2.5 mg/liter, 48 hours). In the test with Chlorella vulgaris, the “Growth on the agar” value stood at 2. For the same compound, the “Growth in the medium” value with Chlorella vulgaris stood at 1.
For `CCCCCCCCCCCCCC[P+](CCCC)(CCCC)CCCC.CCCCCCCCCCCCCC[P+](CCCC)(CCCC)CCCC.[CH3][Sn-2]([Cl])([Cl])([Cl])([Cl])[Cl]` [Example 23], the MIC against fungi against Aureobasidium pullulans came to 10 µg/mL; against Candida albicans it was 10 µg/mL; in the test on Chaetomium globosum it was 10 µg/mL; in the test on Aspergillus phoenicia, 50 µg/mL; against Endomyces geotrichum it was 10 µg/mL; in the test with Alternaria alternata it was 50 µg/mL. The figures for the MIC against fungi (against Penicillium funiculosum; in test [1]; with Aspergillus niger) were 10 µg/mL, 10 µg/mL and 50 µg/mL, respectively. Also, the MIC (against Pseudomonas aeruginosa; with Enterobacter aerogenes; in the test with Serratia marcenscens; in the test with Bacillus subtilis; in test [2]; against Proteus vulgaris) was 100 µg/mL in each case. Also, the “Action against Artemia salina” value is 0 with Artemia salina (0.25 mg/liter, 6 hours); 1-2 with Artemia salina (0.25 mg/liter, 24 hours); 2-3 in the test on Artemia salina (0.25 mg/liter, 48 hours); 1-2 with Artemia salina (0.5 mg/liter, 6 hours); 2-3 in the test with Artemia salina (0.5 mg/liter, 24 hours); 3 in the test on Artemia salina (0.5 mg/liter, 48 hours). Further, the “Action against Artemia salina” value in the test with Artemia salina (1 mg/liter, 6 hours) was 1-2; with Artemia salina (1 mg/liter, 24 hours) it was 3; with Artemia salina (1 mg/liter, 48 hours) it was 3; in the test on Artemia salina (2.5 mg/liter, 6 hours) it was 1-2; in the test with Artemia salina (2.5 mg/liter, 24 hours), 3; in the test on Artemia salina (2.5 mg/liter, 48 hours) it was 3. Also, in the test with Chlorella vulgaris, the “Growth on the agar” value is recorded as 2. In addition, the “Growth in the medium” value in the test with Chlorella vulgaris amounted to 1.
As to `CCCCCCCCCCCCCC[P+](CCCC)(CCCC)CCCC.CCC[CH2][Sn-]([Cl])([Cl])([Cl])[Cl]` [Example 24], the MIC against fungi in the test with Aureobasidium pullulans was 10 µg/mL; in the test on Candida albicans, 50 µg/mL; against Chaetomium globosum, 50 µg/mL; in the test with Aspergillus phoenicia it was more than 100 µg/mL; against Endomyces geotrichum, 50 µg/mL; against Alternaria alternata, more than 100 µg/mL. Moreover, the MIC against fungi against Penicillium funiculosum was 10 µg/mL; in test [1], 10 µg/mL; in the test on Aspergillus niger, more than 100 µg/mL. Moreover, the MIC (against Pseudomonas aeruginosa; against Enterobacter aerogenes; in the test with Serratia marcenscens; in the test with Bacillus subtilis; in [2]; against Proteus vulgaris) was 100 µg/mL each time. Besides, the “Growth on the agar” value in the test with Chlorella vulgaris was 2. Also, the “Growth in the medium” value in the test on Chlorella vulgaris amounted to 1.
Consider `CCCCCCCCCCCCCC[P+](CCCC)(CCCC)CCCC.CCCCCCCCCCCCCC[P+](CCCC)(CCCC)CCCC.CCC[CH2][Sn-2]([Cl])([Cl])([Cl])([Cl])[Cl]` [Example 25], for which the MIC against fungi with Aureobasidium pullulans was 10 µg/mL; against Candida albicans it was 50 µg/mL; in the test with Chaetomium globosum it was 50 µg/mL; against Aspergillus phoenicia, more than 100 µg/mL; in the test with Endomyces geotrichum, 10 µg/mL; with Alternaria alternata, 100 µg/mL. Moreover, the MIC against fungi against Penicillium funiculosum came to 10 µg/mL; in test [1], 10 µg/mL; in the test on Aspergillus niger it was 100 µg/mL. In addition, the MIC (in the test with Pseudomonas aeruginosa; in the test with Enterobacter aerogenes; against Serratia marcenscens; against Bacillus subtilis; in test [2]; in the test with Proteus vulgaris) was 100 µg/mL throughout. For the same compound, the “Growth on the agar” value in the test with Chlorella vulgaris stood at 2. For the same compound, the “Growth in the medium” value with Chlorella vulgaris is listed as 1.
On to `CCCC[P+](CCCC)(CCCC)CCCC.CCC[CH2][Sn-]([Cl])([Cl])([CH2]CCC)[CH2]CCC` [Example 45], for which the MIC against fungi with Aureobasidium pullulans, with Candida albicans, with Chaetomium globosum, against Aspergillus phoenicia, against Endomyces geotrichum and in the test on Alternaria alternata was 10 µg/mL each time. The MIC against fungi (in the test with Penicillium funiculosum; in [1]; with Aspergillus niger) was 10 µg/mL in each case. For the same compound, the “Growth on the agar” value in the test on Chlorella vulgaris was 2. For the same compound, the “Growth in the medium” value in the test with Chlorella vulgaris stood at 1.

The values are drawn from patent US4554367A, “Phosphonium organohalogenostannates-IV” (priority 1982, dated 1985).
